Legend:
rat hindquarters = experiment: Rat hindquarter preparation, responses to high-K+ Krebs' solution; conditions: for TEST A RAT HINDQUARTERS % Inhibition: maximum percentage inhibition, 10^-7 M perfused for 20 minutes, 80 mM K+; for TEST A RAT HINDQUARTERS % Recovery: recovery of response at 1 h following perfusion with normal Krebs' solution, 10^-7 M; for duration of anti-vasoconstrictor effects, compared with terfenadine and cinnarizine: in vitro, rat hindquarter preparation
Protocol: A Rat hindquarter preparation
Responses of rat hindquarters perfused at constant rate were elicited by high -K^+ (80 mM) Krebs' solution. Test compounds (10^-7 M) were perfused for 20 minutes and then compound-free Krebs' perfusion was resumed for 40 min.

histamine aerosol = experiment: Histamine aerosol, protection of guinea-pigs; type: in vivo, guinea-pig
adrenaline = experiment: Protection against a lethal dose of adrenaline; type: in vivo, swiss mice; conditions: Mus musculus; 100 mg/kg oral, 1 h before 2 mg/kg intravenous adrenaline; mice; read-out: TEST D ANTI-ADRENALINE (animals surviving 15 min later)
Protocol: D. Protection against a lethal dose of adrenaline
Groups of 10 .male. swiss mice (25±3 g) were pretreated orally with compounds (100 mg/kg) suspended in carboxymethyl cellulose 1 h before receiving an intraveneous injection of 2 mg/kg adrenaline. The number of animals surviving 15 min later was noted and expressed as a percentage.

in vivo = conditions: mouse, oral, mice, 48 hour period, unit from method b50, read-out: TEST E ACUTE TOXICITY (approximate LD50)
Protocol: Acute toxicity was assessed in groups of 3 mice given the test compounds suspended in 1% carboxymethylcellulose at 30, 100, 300 and 1000 mg/kg orally.

histamine H1-receptor = experiment: Antihistamine activity in anaesthetized rats (vasodepressor responses to histamine); type: in vivo, rat; conditions: 0.3 mg/kg i.v.; pentobarbitone anaesthetized rats
Protocol: B. Antihistamine activity in anaesthetized rats
Test compounds were administered to pentobarbitone anaesthetized rats at 0.3 mg/kg i.v. following stable, submaximal, vasodepressor responses to histamine.

[1] = 0.3 mg/kg oral, 1 hour before 5 minute challenge of nebulized histamine, groups of 5

Row | Compound | TEST A RAT HINDQUARTERS % Inhibition (rat hindquarters) | TEST A RAT HINDQUARTERS % Recovery (rat hindquarters) | TEST C ANTIHISTAMINE AEROSOL (protection) (histamine aerosol; [1]) | responders at 100 mg/kg (adrenaline) | LD50 at 48 h (in vivo) | TEST C ANT[…] (protection) (histamine aerosol; [1]) | H1-histamine receptor antagonist properties, orally against histamine aerosol (histamine aerosol; oral) | TEST B ANTIHISTAMINE IN RAT (inhibition of the histamine response) (histamine H1-receptor) | duration of anti-vasoconstrictor effects, compared with terfenadine and cinnarizine (rat hindquarters)
1 | CC(C)(C)c1ccc(C(O)CCCN2CCC(C(O)(c3ccccc3)c3ccccc3)CC2)cc1 (stereo not drawn) [TERFENADINE, α-[4-(1,1-dimethylethyl)phenyl]-4-(hydroxydiphenylmethyl)-1-piperidinebutanol, reference compound] | 44% | 100% | + (10-25%) | 20% | > 1000 mg/kg |  |  |  | 
2 | CC(C)(C)c1ccc(C(=O)CCCN2CCC(OC(c3ccccc3)c3ccccc3)CC2)cc1 [Compound 1, 4-diphenylmethoxy-1-[3-(4-tert-butylbenzoyl)propyl]-piperidine] |  | 56% |  | 50% |  | +++ (>50% protection) | extremely potent |  | 
3 | CC(C)(C)c1ccc(C(O)CCCN2CCC(OC(c3ccccc3)c3ccccc3)CC2)cc1 (stereo not drawn) [Compound 8, 4-diphenylmethoxy-α-(4-tert-butylphenyl)-1-piperidinebutanol] | 69% | 58% | ++ (25-50%) | 60% |  |  |  | ++ (25-50%) | 
4 | CCc1ccc(C(=O)CCCN2CCC(OC(c3ccccc3)c3ccccc3)CC2)cc1 [Compound 3, 4-diphenylmethoxy-1-[3-(4-ethylbenzoyl)propyl]-piperidine] | 65% | 50% |  | 20% |  |  |  | +++ (50-75%) | much longer lasting
5 | CC(C)c1ccc(C(=O)CCCN2CCC(OC(c3ccccc3)c3ccccc3)CC2)cc1 [Compound 2, 4-diphenylmethoxy-1-[3-(4-isopropylbenzoyl)propyl]-piperidine] | 59% | 50% |  | 50% | > 1000 mg/kg |  |  | +++ (50-75%) | 
6 | CC(C)(C)c1ccc(C(=O)CCCN2CCC(OC(c3ccccc3)c3cccs3)CC2)cc1 (stereo not drawn) [Compound 5, 4-[α-(2-thienyl)benzyloxy]-1-[3-(4-tert-butylbenzoyl)propyl]-piperidine] | 65% | 40% |  |  |  |  |  | +++ (50-75%) | much longer lasting
7 | O=C(CCCN1CCC(OC(c2ccccc2)c2ccccc2)CC1)c1ccc(CC2CC2)cc1 [Compound 4, 4-diphenylmethoxy-1-[3-(4-cyclopropylmethylbenzoyl)propyl]-piperidine] | 75% | 40% |  | 40% |  |  |  | ++ (25-50%) | much longer lasting
8 | OC(CCCN1CCC(OC(c2ccccc2)c2ccccc2)CC1)c1ccc(C2CCCCC2)cc1 (stereo not drawn) [Compound 6, 4-diphenylmethoxy-α-(4-cyclohexylphenyl)-1-piperidinebutanol] | 57% | 55% |  | 20% |  |  |  | ++ (25-50%) | 
9 | CC(C)(C)c1ccc(C(=O)CCCN2CCC(OC(c3ccc(F)cc3)c3ccc(F)cc3)CC2)cc1 [Compound 7, 4-di(4-fluorophenyl)methoxy-1-[3-(4-tert-butylbenzoyl)propyl]-piperidine] | 62% | 13% |  | 40% |  |  |  | +++ (50-75%) | much longer lasting
